Results reported in patent publication US6133275A, “3-phenylpyrrolidine alpha-1 adrenergic compounds” (Abbott Laboratories, priority 1998, dated 2000).
Where a name gives a salt, the structure may show the parent alone.

What was measured:
[1] = target: T1, α1a (Rat) (Rattus norvegicus, UniProt P43140); assay: Radioligand binding, displacement of [3H]-prazosin from cloned α1a (rat) expressed in LTK cells; details: [3H]-prazosin 0.2 nM; cloned rat α1a in LTK cell membranes; 25° C., 50 minutes
T1 sequence (P43140 1-466): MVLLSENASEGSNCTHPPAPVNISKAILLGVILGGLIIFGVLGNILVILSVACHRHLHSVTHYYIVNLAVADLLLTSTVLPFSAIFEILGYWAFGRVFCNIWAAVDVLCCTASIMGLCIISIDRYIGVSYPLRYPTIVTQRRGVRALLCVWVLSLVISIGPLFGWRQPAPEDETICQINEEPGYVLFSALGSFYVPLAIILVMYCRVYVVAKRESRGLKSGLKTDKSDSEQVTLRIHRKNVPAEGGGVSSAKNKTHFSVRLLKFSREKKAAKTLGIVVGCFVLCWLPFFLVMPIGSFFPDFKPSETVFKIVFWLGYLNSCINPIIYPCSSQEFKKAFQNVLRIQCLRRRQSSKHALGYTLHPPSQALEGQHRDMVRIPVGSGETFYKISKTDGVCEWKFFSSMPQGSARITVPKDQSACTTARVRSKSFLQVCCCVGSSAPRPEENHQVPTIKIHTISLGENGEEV

[2] = target: T2, α1a (Bovine) (Bos taurus, UniProt P18130); assay: Radioligand binding, displacement of [3H]-prazosin from cloned α1a (bovine) expressed in LTK cells; details: [3H]-prazosin 0.2 nM; cloned bovine α1a in LTK cell membranes; 25° C., 50 minutes
T2 sequence (P18130 1-466): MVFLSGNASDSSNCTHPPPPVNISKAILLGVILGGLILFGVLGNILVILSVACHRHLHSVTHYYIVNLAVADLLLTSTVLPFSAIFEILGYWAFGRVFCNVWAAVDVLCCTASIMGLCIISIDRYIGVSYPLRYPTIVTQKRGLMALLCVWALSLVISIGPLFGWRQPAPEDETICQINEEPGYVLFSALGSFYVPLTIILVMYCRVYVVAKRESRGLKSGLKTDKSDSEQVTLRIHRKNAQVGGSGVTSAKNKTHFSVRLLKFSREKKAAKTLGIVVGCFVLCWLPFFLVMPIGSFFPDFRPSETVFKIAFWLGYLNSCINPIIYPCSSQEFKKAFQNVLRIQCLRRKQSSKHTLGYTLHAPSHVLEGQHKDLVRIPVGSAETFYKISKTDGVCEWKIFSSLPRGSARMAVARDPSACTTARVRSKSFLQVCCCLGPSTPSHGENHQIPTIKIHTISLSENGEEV

[3] = target: T3, α1b (Hamster) (Mesocricetus auratus, UniProt P18841); assay: Radioligand binding, displacement of [3H]-prazosin from cloned α1b (hamster) expressed in LTK cells; details: [3H]-prazosin 0.2 nM; cloned hamster α1b in LTK cell membranes; 25° C., 50 minutes
T3 sequence (P18841 1-515): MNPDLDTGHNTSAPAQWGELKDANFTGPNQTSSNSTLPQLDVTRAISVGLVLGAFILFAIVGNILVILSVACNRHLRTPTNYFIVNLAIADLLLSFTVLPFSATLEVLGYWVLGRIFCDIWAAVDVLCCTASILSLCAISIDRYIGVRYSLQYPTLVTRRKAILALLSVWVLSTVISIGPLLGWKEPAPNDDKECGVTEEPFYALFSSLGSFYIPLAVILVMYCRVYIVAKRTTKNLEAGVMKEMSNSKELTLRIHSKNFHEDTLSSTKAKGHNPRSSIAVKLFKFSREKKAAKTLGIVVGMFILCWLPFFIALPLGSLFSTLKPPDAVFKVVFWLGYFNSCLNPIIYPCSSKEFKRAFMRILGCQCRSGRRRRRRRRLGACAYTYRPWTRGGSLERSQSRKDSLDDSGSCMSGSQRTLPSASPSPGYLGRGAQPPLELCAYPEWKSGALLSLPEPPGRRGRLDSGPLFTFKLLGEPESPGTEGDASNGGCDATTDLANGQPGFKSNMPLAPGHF

[4] = target: T4, α1d (rat) (Rattus norvegicus, UniProt P23944); assay: Radioligand binding, displacement of [3H]-prazosin from cloned α1d (rat) expressed in LTK cells; details: [3H]-prazosin 0.2 nM; cloned rat α1d in LTK cell membranes; 25° C., 50 minutes
T4 sequence (P23944 1-561): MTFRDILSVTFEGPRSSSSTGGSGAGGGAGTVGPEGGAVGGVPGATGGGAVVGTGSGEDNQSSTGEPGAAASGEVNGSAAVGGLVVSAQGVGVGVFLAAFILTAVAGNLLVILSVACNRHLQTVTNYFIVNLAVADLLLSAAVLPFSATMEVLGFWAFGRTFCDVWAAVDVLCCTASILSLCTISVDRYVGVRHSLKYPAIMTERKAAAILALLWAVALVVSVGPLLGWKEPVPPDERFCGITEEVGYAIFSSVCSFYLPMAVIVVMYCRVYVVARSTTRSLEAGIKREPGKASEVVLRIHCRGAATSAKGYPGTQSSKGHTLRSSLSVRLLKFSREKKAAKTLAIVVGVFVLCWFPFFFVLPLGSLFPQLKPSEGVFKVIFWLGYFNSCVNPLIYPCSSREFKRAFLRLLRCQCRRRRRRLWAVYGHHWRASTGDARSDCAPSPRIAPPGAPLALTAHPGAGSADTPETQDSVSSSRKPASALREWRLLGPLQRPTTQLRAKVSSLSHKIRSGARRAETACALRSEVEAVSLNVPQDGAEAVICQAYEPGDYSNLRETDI

[5] = system: BPH patients; details: cited from earlier work; for Clinical efficacy in BPH: BPH patients; for improvements in urinary flow rates and subjective symptom scores: longer term studies

SMILES	Ki [1] [nM]	Ki [2] [nM]	Ki [3] [nM]	Ki [4] [nM]	Clinical efficacy in BPH [5]	improvements in urinary flow rates and subjective symptom scores [5]
COc1cc2nc(N3CCN(C(=O)C4COc5ccccc5O4)CC3)nc(N)c2cc1OC (stereo not drawn) [doxazosin]	–	–	–	–	Clinical efficacy of α1 antagonists in BPH has been demonstrated	significant improvements in urinary flow rates and subjective symptom scores
COc1cc2nc(N3CCN(C(=O)C4CCCO4)CC3)nc(N)c2cc1OC (stereo not drawn) [terazosin]	–	–	–	–	Clinical efficacy of α1 antagonists in BPH has been demonstrated	significant improvements in urinary flow rates and subjective symptom scores
COc1cccc([C@H]2CCN(CCn3c(=O)[nH]c4c(sc5ccccc54)c3=O)C2)c1 [Example 3, (R)-3-[2-[3-(3-Methoxyphenyl)-1-pyrrolidinyl]ethyl]-[1]benzothieno[3,2-d]pyrimidine-2,4(1H,3H)-dione Monohydrochloride]	34	5.95	59.7	20	–	–
O=C(NC1CCN(CCc2c[nH]c3ccccc23)CC1)c1ccccc1 [indoramin]	–	–	–	–	–	significant improvements in urinary flow rates and subjective symptom scores
COc1cccc([C@H]2CCN(CCn3c(=O)[nH]c4c(sc5cccnc54)c3=O)C2)c1 [Example 20, (R)-3-[2-[3-(3-methoxyphenyl)-1-pyrrolidinyl]ethyl]pyrido[2',3':4,5]thieno[3,2-d]pyrimidine-2,4(1H,3H)-dione, Dihydrochloride]	46.3	12	194	69.4	–	–
COc1cccc([C@H]2CCN(CCCn3c(=O)[nH]c4c(sc5cccnc54)c3=O)C2)c1 [Example 21, (R)-3-[3-[3-(3-methoxyphenyl)-1-pyrrolidinyl]propyl]pyrido[2',3':4,5]thieno[3,2-d]pyrimidine-2,4(1H,3 H)-dione, Dihydrochloride]	27.3	8	70.7	92.2	–	–
COc1cc2nc(N3CCN(C(=O)c4ccco4)CC3)nc(N)c2cc1OC [prazosin]	–	–	–	–	–	significant improvements in urinary flow rates and subjective symptom scores

Continued, in another order:

Ki [1] [nM]	Ki [2] [nM]	Ki [3] [nM]	Ki [4] [nM]	SMILES	Clinical efficacy in BPH [5]	improvements in urinary flow rates and subjective symptom scores [5]
0.57	0.15	0.93	0.23	COc1ccccc1[C@H]1CCN(CCCCN2C(=O)CCc3ccccc32)C1 [Example 19, (R)-3,4-dihydro-1-[4-[3-(2-methoxyphenyl)-1-pyrrolidinyl]butyl]-2(1H)-quinolinone Monohydrochloride]	–	–
0.21	0.07	2.99	0.36	COc1ccccc1[C@H]1CCN(CCCCn2c(=O)[nH]c3c(sc4nccnc43)c2=O)C1 [Example 13, (R)-3-[4-[3-(2-Methoxyphenyl)-1-pyrrolidinyl]butyl]pyrazino[2',3':4,5]thieno[3,2-d]pyrimidine-2,4(1H,3H)-dione, Dihydrochloride]	–	–
25.8	10.3	88.6	27.8	COc1ccccc1[C@@H]1CCN(CCCn2c(=O)[nH]c3c(sc4cccnc43)c2=O)C1 [Example 28, (S)-3-[3-[3-(2-methoxyphenyl)-1-pyrrolidinyl]propyl]pyrido[2',3':4,5]thieno[3,2-d]pyrimidine-2,4(1H,3H)-dione, Dihydrochloride]	–	–
0.22	0.09	5.9	0.47	COc1ccccc1[C@H]1CCN(CCCCn2c(=O)[nH]c3c(sc4ncc(Cl)nc43)c2=O)C1 [Example 14, (R)-8-Chloro-3-[4-[3-(2-methoxyphenyl)-1-pyrrolidinyl]butyl]pyrazino[2',3':4,5]thieno[3,2-d]pyrimidine-2,4(1H,3H)-dione, Dihydrochloride]	–	–
1.8	0.13	0.94	0.82	COc1ccccc1[C@H]1CCN(CCn2c(=O)[nH]c3c(sc4ccccc43)c2=O)C1 [Example 1, (R)-3-[2-[3-(2-Methoxyphenyl)-1-pyrrolidinyl]ethyl]-[1]benzothieno[3,2-d]pyrimidine-2,4(1H,3H)-dione, Monohydrochloride]	–	–
14.4	2.46	15.7	8.48	COc1ccccc1[C@@H]1CCN(CCn2c(=O)[nH]c3c(sc4cccnc43)c2=O)C1 [Example 27, (S)-3-[2-[3-(2-methoxyphenyl)-1-pyrrolidinyl]ethyl]pyrido[2',3':4,5]thieno[3,2-d]pyrimidine-2,4(1H,3 H)-dione, Dihydrochloride]	–	–
0.32	0.06	0.96	0.28	COc1ccccc1[C@H]1CCN(CCCCN2C(=O)c3ccccc3C2=O)C1 [Example 12, (R)-2-[4-[3-(2-methoxyphenyl)-1-pyrrolidinyl]butyl]-1H-isoindole-1,3(2H)-dione, Monohydrochloride]	–	–
0.12	0.05	1.77	0.22	COc1ccccc1[C@H]1CCN(CCCCn2c(=O)[nH]c3c(sc4cccnc43)c2=O)C1 [Example 6, (R)-3-[4-[3-(2-Methoxyphenyl)-1-pyrrolidinyl]butyl]pyrido[2',3':4,5]thieno[3,2-d]pyrimidine-2,4(1H,3H)-dione Dihydrochloride]	–	–
0.13	0.03	1.1	0.22	COc1ccccc1[C@H]1CCN(CCCCN2C(=O)c3ccccc3S2(=O)=O)C1 [Example 17, (R)-2-[4-[3-(2-methoxyphenyl)-1-pyrrolidinyl]butyl]-1,2-benzoisothiazol-3(2H)-one, 1,1-dioxide Monohydrochloride]	–	–
